In paper PMC12396409, “Screening and hit evaluation of a microbial metabolite library against the pathogenic Plasmodium falciparum and Toxoplasma gondii parasites” (International Journal for Parasitology: Drugs and Drug …, 2025):
Like-named read-outs stand apart in the source and are kept apart here.

How the values were obtained:
[1] = tested on: P. falciparum 3D7 parasites; assay: P. falciparum growth inhibition assay, 2-cycle (120 h treatment), delayed-death screen and dose-response; assay type: cell-based, Plasmodium falciparum; conditions: for activity at 2 µg/mL: Plasmodium falciparum, 3D7, 120 h
[2] = tested on: T. gondii RH strain (RH-Tub-eYFP) tachyzoites; assay: microbe, parasite or virus in culture; assay type: cell-based, Toxoplasma gondii; conditions: 72 h; for percent parasite growth at 2 µg/mL: Toxoplasma gondii
[3] = tested on: P. falciparum 3D7 parasites; assay: P. falciparum growth inhibition assay, 1-cycle (72 h treatment), SYBR DNA staining (library screen at 2 μg/mL and dose-response); assay type: cell-based, Plasmodium falciparum; conditions: for activity at 2 µg/mL: Plasmodium falciparum, 3D7, 72 h
[4] = library screen at 2 μg/mL, 120 h, % growth, replicate 1
[5] = library screen at 2 μg/mL, 120 h, % growth, replicate 2
[6] = library screen at 2 μg/mL, % growth, replicate 1
[7] = library screen at 2 μg/mL, % growth, replicate 2
[8] = library screen at 2 μg/mL, 72 h, % growth, replicate 1
[9] = library screen at 2 μg/mL, 72 h, % growth, replicate 2
[10] = P. falciparum, 120 h, parasite screen 2 μg/mL, % growth, replicate 1
[11] = P. falciparum, 120 h, parasite screen 2 μg/mL, % growth, replicate 2
[12] = T. gondii, parasite screen 2 μg/mL, % growth, replicate 1
[13] = T. gondii, parasite screen 2 μg/mL, % growth, replicate 2
[14] = P. falciparum, 72 h, parasite screen 2 μg/mL, % growth, replicate 1
[15] = P. falciparum, 72 h, parasite screen 2 μg/mL, % growth, replicate 2
[16] = P. falciparum, 120 h, screen at 2 μg/mL, replicate 1
[17] = P. falciparum, 120 h, screen at 2 μg/mL, replicate 2
[18] = T. gondii, screen at 2 μg/mL, replicate 1
[19] = T. gondii, screen at 2 μg/mL, replicate 2
[20] = P. falciparum, 72 h, screen at 2 μg/mL, replicate 1
[21] = P. falciparum, 72 h, screen at 2 μg/mL, replicate 2

SMILES: Cc1c2c(c(O)c3c(O)ccc(Cl)c13)C(=O)C1(O)C(O)=C(C(N)=O)C(=O)C(N(C)C)C1C2.Cl (stereo not drawn)
- Pf_120h_%Growth_Rep1 [1, 4]: 95.25%
- Pf_120h_%Growth_Rep2 [1, 5]: 115.61%
- Tg_72h_%Growth_Rep1 [2, 6]: 119.39%
- Tg_72h_%Growth_Rep2 [2, 7]: 96.29%
- Pf_72h_%Growth_Rep1 [3, 8]: 85.99%
- Pf_72h_%Growth_Rep2 [3, 9]: 99.34%

SMILES: CC[C@H]1OC(=O)[C@H](C)[C@@H](O[C@H]2C[C@@](C)(OC)[C@@H](O)[C@H](C)O2)[C@H](C)[C@@H](O[C@@H]2O[C@H](C)C[C@H](N(C)C)[C@H]2O)[C@@]2(C)CC(C)=C(O2)[C@H](C)[C@@H](O)[C@]1(C)O [Erythromycin A enol ether]
- Pf_120h_%Growth_Rep1 [1, 4]: 47.90%
- Pf_120h_%Growth_Rep2 [1, 5]: 73.68%
- Tg_72h_%Growth_Rep1 [2, 6]: 90.78%
- Tg_72h_%Growth_Rep2 [2, 7]: 86.46%
- Pf_72h_%Growth_Rep1 [3, 8]: 65.76%
- Pf_72h_%Growth_Rep2 [3, 9]: 86.36%

SMILES: CC1=C[C@H](O/C=C2/C(=O)O[C@@H]3c4ccccc4C[C@H]23)OC1=O [BIA-G1793]
- Pf_120h_%Growth_Rep1 ([1]; P. falciparum 3D7, 120 h, library screen at 2 μg/mL, % growth, replicate 1): 86.54%
- Pf_120h_%Growth_Rep2 ([1]; P. falciparum 3D7, 120 h, library screen at 2 μg/mL, % growth, replicate 2): 104.67%
- Tg_72h_%Growth_Rep1 ([2]; T. gondii RH, library screen at 2 μg/mL, % growth, replicate 1): 120.90%
- Tg_72h_%Growth_Rep2 ([2]; T. gondii RH, library screen at 2 μg/mL, % growth, replicate 2): 91.67%
- Pf_72h_%Growth_Rep1 ([3]; P. falciparum 3D7, 72 h, library screen at 2 μg/mL, % growth, replicate 1): 84.39%
- Pf_72h_%Growth_Rep2 ([3]; P. falciparum 3D7, 72 h, library screen at 2 μg/mL, % growth, replicate 2): 84.87%

SMILES: CO[C@H]1[C@@H](OC)C[C@H](C)[C@@H](OC)c2cc(O)cc(c2O)NC(=O)/C(C)=C/C=C\[C@H](OC)[C@@H](OC(N)=O)/C(C)=C/[C@@H]1C [TAN 420E]
- Pf_120h_%Growth_Rep1 [1, 10]: 36.47%
- Pf_120h_%Growth_Rep2 [1, 11]: 7.03%
- Tg_72h_%Growth_Rep1 [2, 12]: 60.21%
- Tg_72h_%Growth_Rep2 [2, 13]: 64.79%
- Pf_72h_%Growth_Rep1 [3, 14]: 3.51%
- Pf_72h_%Growth_Rep2 [3, 15]: -0.34%

SMILES: C[C@H]1CCC[C@H](O)CCCCCc2cc(O)cc(O)c2C(=O)O1 [Zearalanol, alpha-]
- Pf_120h_%Growth_Rep1 [1, 16]: 88.76%
- Pf_120h_%Growth_Rep2 [1, 17]: 84.84%
- Tg_72h_%Growth_Rep1 [2, 18]: 162.37%
- Tg_72h_%Growth_Rep2 [2, 19]: 92.02%
- Pf_72h_%Growth_Rep1 [3, 20]: 80.84%
- Pf_72h_%Growth_Rep2 [3, 21]: 78.13%

SMILES: COC1/C=C\C=C(/C)C(=O)NC2=CC(=O)C(NCCN(C)C)=C(C[C@@H](C)C[C@H](OC)[C@H](O)[C@@H](C)/C=C(\C)[C@@H]1OC(N)=O)C2=O (stereo partly drawn)
- Pf_120h_%Growth_Rep1 [1, 4]: 10.33%
- Pf_120h_%Growth_Rep2 [1, 5]: 2.04%
- Tg_72h_%Growth_Rep1 [2, 6]: -1.12%
- Tg_72h_%Growth_Rep2 [2, 7]: -0.16%
- Pf_72h_%Growth_Rep1 [3, 8]: 11.89%
- Pf_72h_%Growth_Rep2 [3, 9]: -0.93%

SMILES: C[C@@H]1CCC[C@@H](O)CCC/C=C/c2cc(O)cc(O)c2C(=O)O1 [Zearalenol, alpha-]
- Pf_120h_%Growth_Rep1 [1, 16]: 153.36%
- Pf_120h_%Growth_Rep2 [1, 17]: 83.41%
- Tg_72h_%Growth_Rep1 [2, 18]: 85.29%
- Tg_72h_%Growth_Rep2 [2, 19]: 104.82%
- Pf_72h_%Growth_Rep1 [3, 20]: 64.20%
- Pf_72h_%Growth_Rep2 [3, 21]: 80.17%

SMILES: CCCCC[C@@H]1CCCCC[C@@H](O)C[C@H](O)[C@H](O)/C=C/C(=O)O1 [Sch 725674]
- Pf_120h_%Growth_Rep1 [1, 10]: 118.17%
- Pf_120h_%Growth_Rep2 [1, 11]: 96.28%
- Tg_72h_%Growth_Rep1 [2, 12]: 110.92%
- Tg_72h_%Growth_Rep2 [2, 13]: 69.04%
- Pf_72h_%Growth_Rep1 [3, 14]: 94.68%
- Pf_72h_%Growth_Rep2 [3, 15]: 136.05%

SMILES: COc1cc(/C=C/C(=O)O)ccc1O [Ferulic acid]
- Pf_120h_%Growth_Rep1 [1, 4]: 78.07%
- Pf_120h_%Growth_Rep2 [1, 5]: 101.86%
- Tg_72h_%Growth_Rep1 [2, 6]: 101.17%
- Tg_72h_%Growth_Rep2 [2, 7]: 94.55%
- Pf_72h_%Growth_Rep1 [3, 8]: 82.96%
- Pf_72h_%Growth_Rep2 [3, 9]: 102.51%

SMILES: C/C1=C\[C@@H](C)C/C=C/[C@H]2[C@@H]3O[C@]3(C)[C@@H](C)[C@H]3[C@H](Cc4c[nH]c5ccccc45)NC(=O)[C@]32C(=O)/C=C/C(=O)[C@@H]1O [Chaetoglobosin A]
- activity at 2 µg/mL ([1]; P. falciparum, 120 h, screen at 2 μg/mL, replicate 1, read-out: Pf_120h_%Growth_Rep1): 17.4%
- activity at 2 µg/mL ([1]; P. falciparum, 120 h, screen at 2 μg/mL, replicate 2, read-out: Pf_120h_%Growth_Rep2): 22.2%
- percent parasite growth at 2 µg/mL ([2]; T. gondii, screen at 2 μg/mL, replicate 1, read-out: Tg_72h_%Growth_Rep1): 51.1%
- percent parasite growth at 2 µg/mL ([2]; T. gondii, screen at 2 μg/mL, replicate 2, read-out: Tg_72h_%Growth_Rep2): 65.4%
- activity at 2 µg/mL ([3]; P. falciparum, 72 h, screen at 2 μg/mL, replicate 1, read-out: Pf_72h_%Growth_Rep1): 10.6%
- activity at 2 µg/mL ([3]; P. falciparum, 72 h, screen at 2 μg/mL, replicate 2, read-out: Pf_72h_%Growth_Rep2): 0.38%
